# Experimental data from patent US9156845B2, “4-(substituted amino)-7H-pyrrolo[2,3-d] pyrimidines as LRRK2 inhibitors” (Pfizer Inc., priority 2012, dated 2015).
# Legend:
# mutant G2019S LRRK2 = mutant G2019S LRRK2 (Homo sapiens (Human), UniProt Q5S007, G2019S); assay: LRRK2 Lantha Screen kinase assay, mutant enzyme; format: biochemical; settings: geometric mean of 2-5 determinations unless otherwise indicated (a: >=6 determinations; b: single determination)
# Procedure: (§1) LRRK2 kinase activity was measured using Lantha Screen technology from Invitrogen. GST-tagged truncated LRRK2 from Invitrogen (Cat # PV4874) was incubated with a fluorescein-labeled peptide substrate based upon ezrin/radixin/moesin (ERM), also known as LRRKtide (Invitrogen cat #PR8976A), in the presence of a dose response of compound. Upon completion, the assay was stopped and detected with a terbium labeled anti-phospho-ERM antibody (Invitrogen, cat #PR8975A). […] Aliquots (3.5 μL) of the 100% DMSO dose response were mixed with 46.5 μL water then 1 μL of this mixture was added to the 3 μL substrate mix in the 384-well plate. The kinase reaction was started with 3 μL of a working solution of LRRK2 enzyme at a concentration of 4 μg/mL. […] The reaction was allowed to progress at room temperature for two hours and then stopped with the addition of 7 μL of detection buffer (20 mM Tris pH 7.6, 0.01% NP-40, 0.02% NaN3, 6 mM EDTA with 2 nM terbium labeled anti-phospho-ERM).
# All final concentrations of substrate ATP and enzyme were the same.
# [1] = target: GST-tagged truncated LRRK2 (Homo sapiens (Human), UniProt Q5S007); assay: LRRK2 Lantha Screen kinase assay; format: biochemical; settings: geometric mean of 2-5 determinations unless otherwise indicated (a: >=6 determinations; b: single determination); read-out: LRRK2 WT IC50
# Sequence of GST-tagged truncated LRRK2 (Q5S007 970-2527): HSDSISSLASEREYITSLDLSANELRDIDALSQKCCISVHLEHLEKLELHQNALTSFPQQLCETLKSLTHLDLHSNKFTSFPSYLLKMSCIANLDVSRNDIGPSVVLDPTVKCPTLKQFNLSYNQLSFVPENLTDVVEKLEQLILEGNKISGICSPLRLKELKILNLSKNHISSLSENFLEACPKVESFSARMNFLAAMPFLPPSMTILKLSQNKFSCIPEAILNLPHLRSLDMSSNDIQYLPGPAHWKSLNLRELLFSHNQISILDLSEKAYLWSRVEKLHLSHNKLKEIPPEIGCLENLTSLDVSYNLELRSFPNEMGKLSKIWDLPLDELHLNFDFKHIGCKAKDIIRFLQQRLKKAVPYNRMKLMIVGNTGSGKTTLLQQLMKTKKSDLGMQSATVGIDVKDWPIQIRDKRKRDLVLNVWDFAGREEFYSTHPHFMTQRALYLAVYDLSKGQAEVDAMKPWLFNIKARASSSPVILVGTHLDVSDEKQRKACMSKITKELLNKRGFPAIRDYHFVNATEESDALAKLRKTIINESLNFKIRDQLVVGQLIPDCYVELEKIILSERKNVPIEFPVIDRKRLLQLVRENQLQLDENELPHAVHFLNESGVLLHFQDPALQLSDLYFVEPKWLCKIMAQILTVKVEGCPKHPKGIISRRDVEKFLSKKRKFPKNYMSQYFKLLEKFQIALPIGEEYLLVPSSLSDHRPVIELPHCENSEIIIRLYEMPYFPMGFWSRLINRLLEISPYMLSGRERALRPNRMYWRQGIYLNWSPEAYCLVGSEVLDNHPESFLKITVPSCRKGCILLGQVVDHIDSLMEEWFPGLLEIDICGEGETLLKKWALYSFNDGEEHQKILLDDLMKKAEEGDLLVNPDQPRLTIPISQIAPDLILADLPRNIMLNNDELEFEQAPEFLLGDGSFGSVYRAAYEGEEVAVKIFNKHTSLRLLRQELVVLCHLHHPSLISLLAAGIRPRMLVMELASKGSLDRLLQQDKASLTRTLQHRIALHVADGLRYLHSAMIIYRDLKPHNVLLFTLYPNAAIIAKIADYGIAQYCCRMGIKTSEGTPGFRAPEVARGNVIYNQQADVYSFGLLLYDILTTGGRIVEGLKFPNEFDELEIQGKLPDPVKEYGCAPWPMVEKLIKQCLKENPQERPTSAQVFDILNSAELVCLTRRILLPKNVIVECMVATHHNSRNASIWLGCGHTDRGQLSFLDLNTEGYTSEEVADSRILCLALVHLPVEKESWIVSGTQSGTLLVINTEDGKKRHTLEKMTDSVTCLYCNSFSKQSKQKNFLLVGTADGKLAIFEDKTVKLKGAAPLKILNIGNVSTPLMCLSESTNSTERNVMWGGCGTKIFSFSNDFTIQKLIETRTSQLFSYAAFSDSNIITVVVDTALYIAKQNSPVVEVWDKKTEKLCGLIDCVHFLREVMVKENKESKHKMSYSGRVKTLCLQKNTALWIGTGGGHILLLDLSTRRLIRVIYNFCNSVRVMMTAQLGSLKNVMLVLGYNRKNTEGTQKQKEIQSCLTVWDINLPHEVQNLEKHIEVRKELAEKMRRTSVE
# Procedure: as §1
# Sequence of mutant G2019S LRRK2 (Q5S007 970-2527 G2019S): as the sequence (Q5S007 970-2527) above, with G1050S counted along it
IC50 (mutant G2019S LRRK2) [nM],IC50 [1] [nM],Structure (SMILES)
80,12,"N#Cc1cccc(-c2c[nH]c3ncnc(N4CCCC(F)C4)c23)c1 (stereo not drawn) [Example 61, 3-[4-(3-fluoropiperidin-1-yl)-7H-pyrrolo[2,3-d]pyrimidin-5-yl]benzonitrile]"
244,34,"N#Cc1cccc(-c2c[nH]c3ncnc(N4CCCC5(CCOC5)C4)c23)c1 (stereo not drawn) [Example 43, 3-[4-(2-oxa-7-azaspiro[4.5]dec-7-yl)-7H-pyrrolo[2,3-d]pyrimidin-5-yl]benzonitrile]"
37,8,"N#Cc1cccc(-c2c[nH]c3ncnc(N4CCC[C@@H](O)C4)c23)c1 [Example 155, 3-{4-[(3R)-3-hydroxypiperidin-1-yl]-7H-pyrrolo[2,3-d]pyrimidin-5-yl}benzonitrile]"
13,8,"Clc1cccc(-c2c[nH]c3ncnc(N4CCOCC4)c23)c1 [Example 83, 5-(3-chlorophenyl)-4-(morpholin-4-yl)-7H-pyrrolo[2,3-d]pyrimidine]"
190,50,"CC(=O)NC1CCN(c2ncnc3[nH]cc(-c4cccc(C#N)c4)c23)CC1 [Example 44, N-{1-[5-(3-cyanophenyl)-7H-pyrrolo[2,3-d]pyrimidin-4-yl]piperidin-4-yl}acetamide]"
16,16,"C[C@@H]1C[C@H](C)CN(c2ncnc3[nH]cc(-c4cnn(C)c4)c23)C1 [Example 22, 4-(3,5-cis-dimethylpiperidin-1-yl)-5-(1-methyl-1H-pyrazol-4-yl)-7H-pyrrolo[2,3-d]pyrimidine]"
